Experiments:
Test in all cases: Test C flooded paddy test
Assay type in all cases: in vivo
[1] = system: sedge, umbrella (small-flower umbrella sedge, Cyperus difformis); conditions: Flood; for Plant response rating (scale of 0 to 100), Sedge, Umbrella: 0 is no effect, 100 is complete control
Method in brief: (§1)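 Rice, small-flower umbrella sedge, ducksalad and barnyardgrass at the 2-leaf stage were flooded to 3 cm, and compound was applied into the paddy water. After 13 to 15 d in a greenhouse, plants were rated visually against controls on a 0 (no effect) to 100 (complete control) scale.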

[2] = system: barnyardgrass (Echinochloa crus-galli); conditions: Flood; for Plant response rating (scale of 0 to 100), Barnyardgrass: 0 is no effect, 100 is complete control
Method in brief: as §1

[3] = system: rice (Oryza sativa); conditions: Flood; for Plant response rating (scale of 0 to 100), Rice: 0 is no effect, 100 is complete control
Method in brief: as §1

[4] = 31 g ai/ha, scale 0 to 100 (0 no effect, 100 complete control), 13 to 15 d

O=C1NCC(c2cccc(OC(F)(F)C(F)F)c2)C1C(=O)Nc1cccc(F)c1F (racemic) [Compound 697]
Plant response rating, Sedge, Umbrella [1, 4]: 0
Plant response rating (scale of 0 to 100), Sedge, Umbrella ([1]; 62 g ai/ha): 0
Plant response rating (scale of 0 to 100), Sedge, Umbrella ([1]; 125 g ai/ha): 0
Plant response rating (scale of 0 to 100), Sedge, Umbrella ([1]; 250 g ai/ha): 0
Plant response rating, Barnyardgrass [2, 4]: 0
Plant response rating (scale of 0 to 100), Barnyardgrass ([2]; 62 g ai/ha): 30
Plant response rating (scale of 0 to 100), Barnyardgrass ([2]; 125 g ai/ha): 45
Plant response rating (scale of 0 to 100), Barnyardgrass ([2]; 250 g ai/ha): 45
Plant response rating, Rice [3, 4]: 0
Plant response rating (scale of 0 to 100), Rice ([3]; 62 g ai/ha): 0
Plant response rating (scale of 0 to 100), Rice ([3]; 125 g ai/ha): 50
Plant response rating (scale of 0 to 100), Rice ([3]; 250 g ai/ha): 70

— patent US12077503B2, “Substituted cyclic amides and their use as herbicides” (FMC CORPORATION, priority 2015, dated 2024)
